Values quoted from earlier work in patent publication US20150044284A1, “DOSAGE FORM COMPRISING A STEROID 5-ALPHA-REDUCTASE INHIBITOR AND AN ALPHA BLOCKER, PROCESS FOR PREPARING OF A DOSAGE FORM, USE OF DOSAGE FORM, METHOD FOR THE TREATMENT OR PROPHYLAXIS OF A DISEASE OR CONDITION MEDIATED BY ANDROGEN” (EMS S.A., priority 2013, published 2015).

Assays:
[1] = tested on: DHT (dihydrotestosterone); conditions: after only two weeks

C[C@]12C=CC(=O)N[C@@H]1CC[C@@H]1[C@@H]2CC[C@]2(C)[C@@H](C(=O)Nc3cc(C(F)(F)F)ccc3C(F)(F)F)CC[C@@H]12 [dutasteride]
Reduction of DHT levels [1]: 90%
Solubility in water: completely insoluble in water
